Measurements as given in ChEMBL document CHEMBL5390317, “Novel Indane-Containing NBTIs with Potent Anti-Gram-Negative Activity and Minimal hERG Inhibition” (ACS Med Chem Lett, 2023).
≈ marks a conversion by molar mass, not a printed value.

Assays:
Klebsiella pneumoniae [1] = assay: Antibacterial activity against Klebsiella pneumoniae ATCC 10031 assessed as inhibition in bacterial growth incubated for 20 to 24 hrs by CLSI based broth microdilution method; assay type: functional; conditions: time 20-24 hrs
Pseudomonas aeruginosa [2] = assay: Antibacterial activity against Pseudomonas aeruginosa NCTC 13437 assessed as inhibition in bacterial growth incubated for 20 to 24 hrs by CLSI based broth microdilution method; assay type: functional
hERG (KCNH2) [3] = biological target: T1, hERG (KCNH2) (Homo sapiens, UniProt Q12809); assay: Inhibition of hERG potassium channel expressed in CHO cells at 1 uM by electrophysiological patch clamp assay relative to control; assay type: toxicity, cell-based; conditions: CHO cells expressing hERG
Klebsiella pneumoniae [4] = assay: Antibacterial activity against Klebsiella pneumoniae ATCC BAA-2146 assessed as inhibition in bacterial growth incubated for 20 to 24 hrs by CLSI based broth microdilution method; assay type: functional; conditions: Klebsiella pneumoniae, ATCC BAA-2146, time 20-24 hrs; read-out: MIC
Acinetobacter baumannii [5] = assay: Antibacterial activity against Acinetobacter baumannii ATCC BAA-747 assessed as inhibition in bacterial growth incubated for 20 to 24 hrs by CLSI based broth microdilution method; assay type: functional
hERG (KCNH2) [6] = biological target: T1, hERG (KCNH2); assay: (§1) Inhibition of hERG potassium channel expressed in CHO cells by electrophysiological patch clamp assay; assay type: toxicity, cell-based; conditions: human, CHO cells expressing hERG
[7] = biological target: Voltage-gated inwardly rectifying potassium channel KCNH2 (Homo sapiens, UniProt Q12809); assay: as §1; assay type: toxicity, cell-based
Escherichia coli [8] = assay: Antibacterial activity against Escherichia coli ATCC 35218 assessed as inhibition in bacterial growth incubated for 20 to 24 hrs by CLSI based broth microdilution method; assay type: functional
DNA gyrase = DNA gyrase (Escherichia coli, UniProt P0AES4+P0AES6); assay: Inhibition of Escherichia coli DNA gyrase incubated for 80 mins by Transcreener ADP2 FI assay; assay type: protein-complex assay
Staphylococcus aureus [9] = assay: Antibacterial activity against Staphylococcus aureus ATCC BAA-1556 assessed as inhibition in bacterial growth incubated for 20 to 24 hrs by CLSI based broth microdilution method; assay type: functional; conditions: Staphylococcus aureus, ATCC BAA-1556, time 20-24 hrs; read-out: MIC
Staphylococcus aureus [10] = assay: Antibacterial activity against Staphylococcus aureus ATCC 29213 assessed as inhibition in bacterial growth incubated for 20 to 24 hrs by CLSI based broth microdilution method; assay type: functional; conditions: time 20-24 hrs
Acinetobacter baumannii [11] = assay: Antibacterial activity against Acinetobacter baumannii ATCC 51432 assessed as inhibition in bacterial growth incubated for 20 to 24 hrs by CLSI based broth microdilution method; assay type: functional; conditions: Acinetobacter baumannii, ATCC 51432, time 20-24 hrs; read-out: MIC
Escherichia coli [12] = assay: Antibacterial activity against Escherichia coli ATCC BAA-2340 assessed as inhibition in bacterial growth incubated for 20 to 24 hrs by CLSI based broth microdilution method; assay type: functional
Klebsiella pneumoniae [13] = assay: Antibacterial activity against Klebsiella pneumoniae ATCC 700603 assessed as inhibition in bacterial growth incubated for 20 to 24 hrs by CLSI based broth microdilution method; assay type: functional; conditions: Klebsiella pneumoniae, ATCC 700603, time 20-24 hrs; read-out: MIC
Pseudomonas aeruginosa [14] = assay: Antibacterial activity against Pseudomonas aeruginosa ATCC 27853 assessed as inhibition in bacterial growth incubated for 20 to 24 hrs by CLSI based broth microdilution method; assay type: functional; conditions: time 20-24 hrs
hERG (KCNH2) [15] = biological target: T1, hERG (KCNH2); assay: Inhibition of hERG potassium channel expressed in CHO cells at 10 uM by electrophysiological patch clamp assay relative to control; assay type: toxicity, cell-based; conditions: CHO cells expressing hERG
[16] = Inhibition of Escherichia coli topoisomerase 4 incubated for 120 mins by Transcreener ADP2 FI assay
Escherichia coli [17] = assay: Antibacterial activity against Escherichia coli K-12 BW25113 deltaTolC assessed as inhibition in bacterial growth incubated for 20 to 24 hrs by CLSI based broth microdilution method; assay type: functional; conditions: time 20-24 hrs
Acinetobacter baumannii [18] = assay: Antibacterial activity against Acinetobacter baumannii ATCC 19606 assessed as inhibition in bacterial growth incubated for 20 to 24 hrs by CLSI based broth microdilution method; assay type: functional; conditions: time 20-24 hrs
Pseudomonas aeruginosa [19] = assay: Antibacterial activity against Pseudomonas aeruginosa NCTC 11451 assessed as inhibition in bacterial growth incubated for 20 to 24 hrs by CLSI based broth microdilution method; assay type: functional; conditions: Pseudomonas aeruginosa, NCTC 11451, time 20-24 hrs; read-out: MIC
Klebsiella pneumoniae [20] = assay: Antibacterial activity against Klebsiella pneumoniae ATCC BAA-1705 assessed as inhibition in bacterial growth incubated for 20 to 24 hrs by CLSI based broth microdilution method; assay type: functional; conditions: time 20-24 hrs
Escherichia coli [21] = assay: Antibacterial activity against Escherichia coli K-12 BW25113 assessed as inhibition in bacterial growth incubated for 20 to 24 hrs by CLSI based broth microdilution method; assay type: functional
Escherichia coli [22] = assay: Antibacterial activity against Escherichia coli ATCC 25922 assessed as inhibition in bacterial growth incubated for 20 to 24 hrs by CLSI based broth microdilution method; assay type: functional; conditions: time 20-24 hrs
[23] = Pseudomonas aeruginosa, NCTC 13437, time 20-24 hrs, read-out: MIC
[24] = Acinetobacter baumannii, ATCC BAA-747, time 20-24 hrs, read-out: MIC
[25] = Escherichia coli, ATCC 35218, time 20-24 hrs, read-out: MIC
[26] = Staphylococcus aureus, ATCC 29213, read-out: MIC
[27] = Escherichia coli, ATCC BAA-2340, time 20-24 hrs, read-out: MIC
[28] = Escherichia coli, K-12 BW25113, time 20-24 hrs, read-out: MIC

Chain of Voltage-gated inwardly rectifying potassium channel KCNH2 (Q12809 whole entry): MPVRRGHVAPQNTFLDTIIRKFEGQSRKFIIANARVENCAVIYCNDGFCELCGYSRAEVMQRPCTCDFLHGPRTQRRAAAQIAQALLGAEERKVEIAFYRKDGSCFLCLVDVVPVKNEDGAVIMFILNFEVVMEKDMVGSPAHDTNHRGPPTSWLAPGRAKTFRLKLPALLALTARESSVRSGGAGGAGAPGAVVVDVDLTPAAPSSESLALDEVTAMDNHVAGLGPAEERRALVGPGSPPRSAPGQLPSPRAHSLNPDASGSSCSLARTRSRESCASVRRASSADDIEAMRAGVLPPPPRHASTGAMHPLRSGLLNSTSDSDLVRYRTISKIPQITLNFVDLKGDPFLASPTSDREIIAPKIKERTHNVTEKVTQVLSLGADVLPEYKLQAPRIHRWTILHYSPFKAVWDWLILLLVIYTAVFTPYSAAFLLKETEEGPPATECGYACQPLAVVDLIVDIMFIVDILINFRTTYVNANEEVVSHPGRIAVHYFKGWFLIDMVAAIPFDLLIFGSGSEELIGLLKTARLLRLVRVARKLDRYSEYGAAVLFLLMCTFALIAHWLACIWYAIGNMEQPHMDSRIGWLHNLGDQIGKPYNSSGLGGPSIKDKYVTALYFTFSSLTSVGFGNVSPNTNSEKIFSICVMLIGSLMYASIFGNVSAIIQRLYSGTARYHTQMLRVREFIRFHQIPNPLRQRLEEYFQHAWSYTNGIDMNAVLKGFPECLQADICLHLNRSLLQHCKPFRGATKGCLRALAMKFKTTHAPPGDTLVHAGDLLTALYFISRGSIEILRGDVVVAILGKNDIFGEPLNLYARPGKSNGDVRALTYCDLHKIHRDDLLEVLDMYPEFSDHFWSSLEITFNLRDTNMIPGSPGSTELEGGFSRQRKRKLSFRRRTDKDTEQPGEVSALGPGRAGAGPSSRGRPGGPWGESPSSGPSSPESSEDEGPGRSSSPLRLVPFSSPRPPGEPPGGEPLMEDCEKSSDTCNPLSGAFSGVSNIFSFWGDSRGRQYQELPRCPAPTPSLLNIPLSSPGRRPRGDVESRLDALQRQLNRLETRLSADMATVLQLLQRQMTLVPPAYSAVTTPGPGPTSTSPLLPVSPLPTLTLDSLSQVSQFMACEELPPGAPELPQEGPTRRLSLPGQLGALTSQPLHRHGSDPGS
T1 sequence (Q12809 whole entry): as above

| MIC (Klebsiella pneumoniae [1]) [µg/mL] | MIC (Pseudomonas aeruginosa [2]; [23]) [µg/mL] | MIC (Klebsiella pneumoniae [4]) [µg/mL] | MIC (Acinetobacter baumannii [5]; [24]) [µg/mL] | MIC (Escherichia coli [8]; [25]) [µg/mL] | IC50 (DNA gyrase) [nM] | MIC (Staphylococcus aureus [9]) [µg/mL] | MIC (Staphylococcus aureus [10]; [26]) [µg/mL] | MIC (Acinetobacter baumannii [11]) [µg/mL] | MIC (Escherichia coli [12]; [27]) [µg/mL] | MIC (Klebsiella pneumoniae [13]) [µg/mL] | MIC (Pseudomonas aeruginosa [14]) [µg/mL] | IC50 [16] [nM] | MIC (Escherichia coli [17]) [µg/mL] | MIC (Acinetobacter baumannii [18]) [µg/mL] | MIC (Pseudomonas aeruginosa [19]) [µg/mL] | MIC (Klebsiella pneumoniae [20]) [µg/mL] | MIC (Escherichia coli [21]; [28]) [µg/mL] | MIC (Escherichia coli [22]) [µg/mL] | SMILES | IC50 [7] [nM] | further results |
| --- | --- | --- | --- | --- | --- | --- | --- | --- | --- | --- | --- | --- | --- | --- | --- | --- | --- | --- | --- | --- | --- |
| ≤ 0.06 | 4 (≈ 8.31 µM) | 8 (≈ 16.6 µM) | 0.125 (≈ 0.26 µM) | 0.5 (≈ 1.04 µM) | 81 | 0.25 (≈ 0.519 µM) | 0.125 (≈ 0.26 µM) | 1 (≈ 2.08 µM) | 1 (≈ 2.08 µM) | 4 (≈ 8.31 µM) | 4 (≈ 8.31 µM) | 31 | ≤ 0.06 | 0.5 (≈ 1.04 µM) | 8 (≈ 16.6 µM) | 4 (≈ 8.31 µM) | 0.25 (≈ 0.519 µM) | 0.5 (≈ 1.04 µM) | N#CCOc1cc(F)c2c(c1)CC(CNCCC1CN(c3ccc4c(n3)NC(=O)CO4)C(=O)O1)C2 (centres undefined) | 230 | inhibition at 1 µM (hERG (KCNH2) [3]): 84%; IC20 (hERG (KCNH2) [6]): 66 nM; inhibition at 10 µM (hERG (KCNH2) [15]): 98% |
| ≤ 0.06 | 1 (≈ 1.95 µM) | 1 (≈ 1.95 µM) | ≤ 0.06 | 0.125 (≈ 0.244 µM) | 100 | 0.125 (≈ 0.244 µM) | ≤ 0.06 | 1 (≈ 1.95 µM) | 0.25 (≈ 0.489 µM) | 2 (≈ 3.91 µM) | 0.5 (≈ 0.977 µM) | 39 | ≤ 0.06 | 0.5 (≈ 0.977 µM) | 2 (≈ 3.91 µM) | 1 (≈ 1.95 µM) | ≤ 0.06 | 0.125 (≈ 0.244 µM) | NC1(COc2cc(F)c3c(c2)CC(CNCCC2CN(c4ccc5c(n4)NC(=O)CO5)C(=O)O2)C3)CC1 (centres undefined) | > 10000 | inhibition at 1 µM (hERG (KCNH2) [3]): < 1%; IC20 (hERG (KCNH2) [6]): 3100 nM; inhibition at 10 µM (hERG (KCNH2) [15]): 45% |
| ≤ 0.06 | 0.5 (≈ 0.964 µM) | 4 (≈ 7.71 µM) | ≤ 0.06 | 0.125 (≈ 0.241 µM) | 35 | ≤ 0.06 | ≤ 0.06 | 2 (≈ 3.86 µM) | ≤ 0.06 | 1 (≈ 1.93 µM) | 0.25 (≈ 0.482 µM) | 19 | ≤ 0.06 | 1 (≈ 1.93 µM) | 1 (≈ 1.93 µM) | 1 (≈ 1.93 µM) | ≤ 0.06 | ≤ 0.06 | N#Cc1cc(OCC2(N)CC2)cc2c1CC(CNCCC1CN(c3ccc4c(n3)NC(=O)CO4)C(=O)O1)C2 (centres undefined) | > 20000 | inhibition at 1 µM (hERG (KCNH2) [3]): < 1%; IC20 (hERG (KCNH2) [6]): 6400 nM; inhibition at 10 µM (hERG (KCNH2) [15]): 28% |
|  |  |  |  |  |  |  |  |  |  |  |  |  |  |  |  |  |  |  | C[C@@H](C(=O)Nc1cc(F)c2c(c1)CC(CNCCC1CN(c3cnc4c(n3)NC(=O)CO4)C(=O)O1)C2)N(C)C (stereo in doubt; 2j) | 178000 | MIC (Pseudomonas aeruginosa [2]; time 20-24 hrs): 2 µg/mL (≈ 3.69 µM); MIC (Acinetobacter baumannii [5]; time 20-24 hrs): 0.5 µg/mL (≈ 0.923 µM); IC20 ([7]; human, cho): 66000 nM; MIC (Escherichia coli [8]; time 20-24 hrs): 0.25 µg/mL (≈ 0.462 µM); MIC (Staphylococcus aureus [10]): 0.25 µg/mL (≈ 0.462 µM); MIC (Escherichia coli [12]; time 20-24 hrs): 0.25 µg/mL (≈ 0.462 µM); MIC (Escherichia coli [21]; time 20-24 hrs): 0.125 µg/mL (≈ 0.231 µM) |
| ≤ 0.06 | 0.5 (≈ 0.95 µM) | 1 (≈ 1.9 µM) | ≤ 0.06 | ≤ 0.06 | 24 | ≤ 0.06 | ≤ 0.06 | 0.5 (≈ 0.95 µM) | 0.125 (≈ 0.237 µM) | 1 (≈ 1.9 µM) | 0.125 (≈ 0.237 µM) | 16 | ≤ 0.06 | 0.25 (≈ 0.475 µM) | 0.5 (≈ 0.95 µM) | 0.5 (≈ 0.95 µM) | ≤ 0.06 | ≤ 0.06 | C[C@@H](N)COc1cc(F)c2c(c1)CC(CN1CCC3(CC1)CN(c1cnc4c(n1)NC(=O)CO4)C(=O)O3)C2 (some centres undefined) | > 20000 | inhibition at 1 µM (hERG (KCNH2) [3]): 6.7%; IC20 (hERG (KCNH2) [6]): > 10000 nM; inhibition at 10 µM (hERG (KCNH2) [15]): 12% |
| 16 (≈ 32 µM) | > 64 | > 64 | > 64 | > 64 | 600 | > 64 | > 64 | > 64 | > 64 | > 64 | > 64 | 370 | 8 (≈ 16 µM) | > 64 | > 64 | > 64 | > 64 | > 64 | O=C(O)COc1cc(F)c2c(c1)CC(CNCCC1CN(c3ccc4c(n3)NC(=O)CO4)C(=O)O1)C2 (centres undefined) |  |  |
